pKi: −log10 of the molar value.
How the values were obtained:
[1] = Compound is evaluated for inhibition of aspartate transcarbamoylase (ATCase); set-up: species or system Escherichia coli
[2] = Compound is evaluated for inhibition of aspartate transcarbamoylase (ATCase).; set-up: species or system Escherichia coli

Row | SMILES | pKi [1] | pKi [2]
1 | O=C(O)CC(C[S+]([O-])CP(=O)(O)O)C(=O)O (configuration not stated) | 2.64 | –
2 | O=C(O)CC(SCP(=O)(O)O)C(=O)O (configuration not stated) | – | 2.96
3 | O=C(O)CC(CS(=O)(=O)CP(=O)(O)O)C(=O)O (configuration not stated) | 3.19 | –

Continued by rising pKi [1], values first:

Row | pKi [1] | SMILES | pKi [2]
4 | 3.30 | O=C(O)CC(NS(=O)(=O)CP(=O)(O)O)C(=O)O (configuration not stated) | –
5 | 3.37 | O=C(O)CC(CSCP(=O)(O)O)C(=O)O (configuration not stated) | –
6 | 5.70 | O=C(O)CC(OC(=O)CP(=O)(O)O)C(=O)O (configuration not stated) | –
7 | 7.52 | O=C(O)CC(NC(=O)CP(=O)(O)O)C(=O)O (configuration not stated) [SPARFOSIC ACID] | –

Reference: ChEMBL document CHEMBL1122846, “Design and synthesis of new transition-state analogue inhibitors of aspartate transcarbamylase” (J Med Chem, 1985)
